Data: patent US9253997B2, “Alkylamine derivative” (AJINOMOTO CO., INC., priority 2010, dated 2016)

Assays:
[1] = tested on: NSAID-induced small intestine inflammation; assay: Effect against NSAID-induced small intestine inflammation; type: in vivo, rat; details: 30 minutes before loxoprofen 60 mg/kg oral, 24 hours
Procedure: (Method) To a non-fasting rat, Compound No. 1 or 2 (the compound described in Example 14) (10 mg/kg) or Compound No. 3 (the compound described in Example 48) (3, 10 or 30 mg/kg) was orally administered. After 30 minutes, loxoprofen (60 mg/kg) was orally administered and the rat was left for 24 hours. Thirty minutes before the autopsy, 1 ml of 1% (w/w) Evansblue dye was intravenously administered to the rat. The small intestine (from duodenum to ileum) of the animal euthanized under deep ether anesthesia was isolated and immersed in 2% formalin for 10 minutes to fix the small intestine from the serosa side. The small intestine was dissected from the opposite side of the mesentery to measure the injury area (mm^2) thereof under a 10× dissecting microscope. T-test or Dunnett's test was employed as the statistical test where p<0.05 was considered to indicate significant difference.

[2] = tested on: large intestine loop; assay: Water absorption action using rat colon loop technique; type: in vivo; details: male SD (IGS) rat colon loop, PGE2 4 μg/ml/kg i.p., compound in Tyrode's solution injected into loop, 1 hour; FIGS. 5-8
Procedure: (Method) Appendix and large intestine were isolated from a male SD (IGS) rat under pentobarbital anesthesia, which were ligated 5 cm below the appendix to prepare a large intestine loop. Immediately after loop preparation, PGE2 (4 μg/ml/kg, SIGMA) was intraperitoneally administered. Thirty minutes later, 2 ml of Tyrode's solution (NaCl 136.9 mM, KCl 2.7 mM, CaCl2.2H2O 1.8 mM, MgCl2.6H2O 1.04 mM, NaH2PO4.2H2O 0.04 mM, NaH2PO4.2H2O 0.04 mM, Glucose 5.55 mM, NaHCO3 11.9 mM) was injected into the prepared loop. An hour later, weight of the loop, weight of the loop after removing the fluid therefrom and the loop area were measured to calculate the weight of liquid remaining in the loop per unit area.
The above-described Compounds Nos. 1-3 and Compound No. 4 (the compound described in Example 47) were used as the test compounds while the agents were dissolved in Tyrode's solution. Remaining liquid measure per unit area (g/cm^2)=(weight of loop−weight of loop after removing fluid therefrom)/loop area.
Water absorption was assessed by calculating water regulating effect (%) according to the following formula. Water regulating effect (%)=100−(remaining liquid measure per unit area obtained with agent−average remaining liquid measure per base unit area)/(remaining liquid measure per unit area obtained with vehicle−average remaining liquid measure per base unit area)×100.

[3] = tested on: serum iPTH; assay: Effect of decreasing iPTH in rat by single dose of intravenous administration; type: in vivo; details: male SD (IGS) rat, 0.1 mg/kg, compared with cinacalcet
Procedure: (Method) A single dose was given to male SD (IGS) rat under pentobarbital anesthesia from a tail vein to examine the transition of serum iPTH and serum Ca concentration. Blood was taken before the administration and 5, 15, 30 and 60 minutes after the administration.
Compound No. 1 (the compound described in Example 6) was dissolved in physiological saline. Meanwhile, cinacalcet as a control substance was dissolved in PEG400: Saline=1:1 solution.

[4] = molecular target: human CaSR (Homo sapiens (Human), UniProt P41180); assay: Assessment of CaSR agonistic activity (FLIPR Ca2+ fluorescence); type: cell-based; details: 293E cells transfected with hCaSR/pcDNA3.1, Calcium 4 Assay Kit, 1.5 mM CaCl2 assay buffer
Procedure: CaSR gene was prepared according to the method described in Example 1 of WO07/55393. The resulting recombinant plasmid was used to generate human CaSR-expressing plasmid hCaSR/pcDNA3.1.
293E cells (EBNA1-expressing IIEK293 cells, ATCC No. CRL-10852) were cultured in DMEM ([…] Glucose-containing Dulbecco's modified Eagle medium, Nacalai Tesque) containing 10% bovine fetal serum in the presence of 250 μg/ml of G418. The cells were seeded on a 10 cm-diameter petri dish at 1.8×10^6 cells/15 ml, and left to stand in a CO2 incubator (5% CO2, 37° C.) for 24 hours. Thereafter, human CaSR expression plasmid hCaSR/pcDNA3.1 was transfected with transfection reagent Mirus Trans IT 293 (Takara Bio). Following static culture in a CO2 incubator for 24 hours, the cells were harvested with 10% bovine fetal serum-containing DMEM and seeded on a poly-D-lysine coat 384 well plate (Falcon) at 15,000 cells/well. Following static culture in a CO2 incubator for 24 hours, the medium was removed and the resultant was added with 50 μl/well of Ca^2+ fluorescent indicator Calcium 4 Assay Kit (Molecular Devices) dissolved in an assay buffer (146 mM NaCl, 5 mM KCl, 1 mM MgSO4, 1 mg/ml Glucose, 20 mM HEPES (PH 7.2), 1.5 mM CaCl2), and left to stand at 37° C. for an hour and then at room temperature for 30 minutes to allow intake of the indicator. The above-mentioned 384-well plate was transferred to FLIPR (Molecular Devices) and added with 12.5 μl/well of a compound dissolved in a 0.1% BSA-containing assay buffer to measure 3-minute change in the fluorescence intensity.
The difference between maximum and minimum fluorescence intensities before and after compound addition (RFU (Max-Min)) was determined by FLIPR automatic calculation. An activity rate was calculated where RFU (Max-Min) upon addition of a compound at a maximum concentration was defined 100% and RFU (Max-Min) upon addition of DMSO as a substitute for the compound at the same concentration was defined 0%. […]

[5] = non-fasting rat, 10 mg/kg oral, FIG. 3

human CaSR, sequence (P41180 20-1078): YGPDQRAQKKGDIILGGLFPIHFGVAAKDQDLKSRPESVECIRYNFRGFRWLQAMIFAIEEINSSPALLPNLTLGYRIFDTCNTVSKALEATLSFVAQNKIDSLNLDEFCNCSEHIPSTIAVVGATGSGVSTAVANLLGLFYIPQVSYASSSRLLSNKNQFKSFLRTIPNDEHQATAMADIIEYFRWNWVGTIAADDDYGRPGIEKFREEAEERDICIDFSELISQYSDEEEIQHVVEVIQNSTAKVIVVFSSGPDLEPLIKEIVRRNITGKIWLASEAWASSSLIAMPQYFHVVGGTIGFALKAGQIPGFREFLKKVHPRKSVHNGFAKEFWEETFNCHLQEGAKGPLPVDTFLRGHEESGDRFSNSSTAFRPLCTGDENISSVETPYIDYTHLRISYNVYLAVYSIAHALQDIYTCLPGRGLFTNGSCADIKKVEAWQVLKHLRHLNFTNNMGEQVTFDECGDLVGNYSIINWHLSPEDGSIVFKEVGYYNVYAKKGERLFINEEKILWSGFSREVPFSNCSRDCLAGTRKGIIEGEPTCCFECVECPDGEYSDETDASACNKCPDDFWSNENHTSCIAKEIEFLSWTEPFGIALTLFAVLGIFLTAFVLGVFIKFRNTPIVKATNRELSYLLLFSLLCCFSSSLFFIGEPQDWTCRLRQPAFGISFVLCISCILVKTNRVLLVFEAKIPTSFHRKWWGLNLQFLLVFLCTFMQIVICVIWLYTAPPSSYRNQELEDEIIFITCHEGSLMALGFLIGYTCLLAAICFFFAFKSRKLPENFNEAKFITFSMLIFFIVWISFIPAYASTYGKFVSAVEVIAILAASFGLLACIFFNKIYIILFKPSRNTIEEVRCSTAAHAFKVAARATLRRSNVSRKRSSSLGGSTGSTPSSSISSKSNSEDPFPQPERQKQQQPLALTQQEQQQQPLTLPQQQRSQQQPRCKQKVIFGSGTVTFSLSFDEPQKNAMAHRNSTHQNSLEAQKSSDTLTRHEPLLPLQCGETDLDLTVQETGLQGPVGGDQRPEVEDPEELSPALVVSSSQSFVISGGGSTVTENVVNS

EC50 [4]	Structure (SMILES)	injury area of small intestine [1, 5]	water absorption (water regulating effect) [2]	also measured
	N[C@@H](CNC(=O)Nc1cc(Cl)cc(S(=O)(=O)O)c1O)C(=O)O [Example 6, (2S)-2-amino-3-{[(5-chloro-2-hydroxy-3-sulfophenyl)carbamoyl]amino}propanoic acid]	significantly improved the injury area	promoted water absorption in a dose-depending manner	decreasing serum iPTH ([3]; FIG. 1): almost the same effect as cinacalcet; decreasing serum Ca ([3]; FIG. 2): almost the same effect as cinacalcet
0.003 µM	Cc1c(Cl)cc(S(=O)(=O)O)cc1NC(=O)NC[C@H](N)C(=O)O [Example 14, (2S)-2-amino-3-{[(3-chloro-2-methyl-5-sulfophenyl)carbamoyl]amino}propanoic acid]	showed a tendency to improve the injury area	promoted water absorption in a dose-depending manner	
	Cc1c(Cl)cc(S(=O)(=O)O)cc1NC(=S)NC[C@H](N)C(=O)O [Example 47, (2S)-2-amino-3-{[(3-chloro-2-methyl-5-sulfophenyl)carbamothioyl]amino}propanoic acid]		promoted water absorption in a dose-depending manner	
	Cc1c(Cl)cc(NC(=S)NC[C@H](N)C(=O)O)cc1S(=O)(=O)O [Example 48, (2S)-2-amino-3-{[(3-chloro-4-methyl-5-sulfophenyl)carbamothioyl]amino}propanoic acid]		promoted water absorption in a dose-depending manner	injury area of small intestine ([1]; non-fasting rat, 3, 10 or 30 mg/kg oral, FIG. 4): showed a tendency to improve the injury area
3.1 µM	N[C@@H](CCC(=O)Nc1cc(Cl)cc(S(=O)(=O)O)c1O)C(=O)N1CCOCC1 [Example 58, 3-[(4S)-4-amino-5-(morpholine-4-yl)-5-oxopentanamide]-5-chloro-2-hydroxybenzene-1-sulfonic acid]			
3.4 µM	N[C@@H](CCC(=O)Nc1cc(Cl)cc(S(=O)(=O)O)c1O)C(=O)NC1CCCCCC1 [Example 60, 3-[(4S)4-amino-4-(cycloheptylcarbamoyl)butanamide]-5-chloro-2-hydroxybenzene-1-sulfonic acid]			
